# Data taken from publication PMC7265341, “Quantifying CDK inhibitor selectivity in live cells” (Nature Communications, 2020).
# Like-named read-outs stand apart in the source and are kept apart here.
# Tests used:
# CDK10/Cyclin L2 = CDK10/Cyclin L2 (Homo sapiens, UniProt Q15131); experiment: NanoBRET live-cell target engagement, CDK10-NanoLuc/Cyclin L2 in HEK-293; conditions: read-out: Inhibition at 10µM (%), CDK10/L2
# CDK13/Cyclin K = CDK13/Cyclin K (Homo sapiens, UniProt Q14004); experiment: NanoBRET live-cell target engagement, CDK13-NanoLuc/Cyclin K in HEK-293; type: binding; conditions: CDK13/K, read-out: Inhibition at 10µM (%)
# CDK5/CDK5R1 = CDK5/CDK5R1 (Homo sapiens, UniProt Q00535); experiment: NanoBRET live-cell target engagement, CDK5-NanoLuc/CDK5R1 in HEK-293; type: binding; conditions: CDK5/CDK5R1, read-out: Inhibition at 10µM (%)
# CDK8/Cyclin C = CDK8/Cyclin C (Homo sapiens, UniProt P49336); experiment: NanoBRET live-cell target engagement, NanoLuc-CDK8/Cyclin C in HEK-293; type: binding; conditions: CDK8/C, read-out: Inhibition at 10µM (%)
# CDK6/Cyclin D1 = CDK6/Cyclin D1 (Homo sapiens, UniProt Q00534); experiment: NanoBRET live-cell target engagement, NanoLuc-CDK6/Cyclin D1 in HEK-293; type: binding; conditions: CDK6/D1, read-out: Inhibition at 10µM (%)
# CDK3/Cyclin E1 = CDK3/Cyclin E1 (Homo sapiens, UniProt Q00526); experiment: NanoBRET live-cell target engagement, CDK3-NanoLuc/Cyclin E1 in HEK-293; type: binding; conditions: CDK3/E1, read-out: Inhibition at 10µM (%)
# CDK2/Cyclin E1 = CDK2/Cyclin E1 (Homo sapiens, UniProt P24941); experiment: NanoBRET live-cell target engagement, CDK2-NanoLuc/Cyclin E1 in HEK-293; type: binding; conditions: CDK2/E1, read-out: Inhibition at 10µM (%)
# CDK18/Cyclin Y = CDK18/Cyclin Y (Homo sapiens, UniProt Q07002); experiment: NanoBRET live-cell target engagement, CDK18-NanoLuc/Cyclin Y in HEK-293; type: binding; conditions: CDK18/Y, read-out: Inhibition at 10µM (%)
# CDK17/Cyclin Y = CDK17/Cyclin Y (Homo sapiens, UniProt Q00537); experiment: NanoBRET live-cell target engagement, CDK17-NanoLuc/Cyclin Y in HEK-293; type: binding; conditions: CDK17/Y, read-out: Inhibition at 10µM (%)
# Chain of CDK17/Cyclin Y (Q00537 whole entry): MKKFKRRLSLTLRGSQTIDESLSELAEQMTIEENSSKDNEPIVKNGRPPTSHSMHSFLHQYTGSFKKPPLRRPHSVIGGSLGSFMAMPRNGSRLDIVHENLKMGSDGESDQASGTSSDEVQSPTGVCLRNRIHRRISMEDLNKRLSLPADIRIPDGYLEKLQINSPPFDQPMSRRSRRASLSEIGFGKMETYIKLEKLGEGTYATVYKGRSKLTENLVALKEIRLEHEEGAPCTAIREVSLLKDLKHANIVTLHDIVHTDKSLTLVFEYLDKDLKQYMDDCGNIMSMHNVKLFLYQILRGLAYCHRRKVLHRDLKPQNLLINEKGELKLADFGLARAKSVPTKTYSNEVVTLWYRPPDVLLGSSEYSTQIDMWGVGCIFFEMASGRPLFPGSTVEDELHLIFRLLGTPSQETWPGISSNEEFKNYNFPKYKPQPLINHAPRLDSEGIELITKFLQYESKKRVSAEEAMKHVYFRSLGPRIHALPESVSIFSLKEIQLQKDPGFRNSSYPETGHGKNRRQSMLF
# Chain of CDK17/Cyclin Y (Q8ND76 whole entry partner): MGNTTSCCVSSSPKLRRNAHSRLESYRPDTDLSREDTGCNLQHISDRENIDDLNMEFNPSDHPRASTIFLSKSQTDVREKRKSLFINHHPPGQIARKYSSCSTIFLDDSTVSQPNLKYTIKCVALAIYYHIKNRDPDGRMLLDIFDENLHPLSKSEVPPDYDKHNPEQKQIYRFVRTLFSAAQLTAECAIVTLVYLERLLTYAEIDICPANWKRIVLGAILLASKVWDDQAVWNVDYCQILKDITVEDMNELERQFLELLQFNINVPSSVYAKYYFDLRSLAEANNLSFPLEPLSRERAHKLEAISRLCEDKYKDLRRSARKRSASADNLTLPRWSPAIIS
# CDK14/Cyclin Y = CDK14/Cyclin Y (Homo sapiens, UniProt O94921); experiment: NanoBRET live-cell target engagement, CDK14-NanoLuc/Cyclin Y in HEK-293; type: binding; conditions: CDK14/Y, read-out: Inhibition at 10µM (%)
# Chain of CDK14/Cyclin Y (O94921 whole entry): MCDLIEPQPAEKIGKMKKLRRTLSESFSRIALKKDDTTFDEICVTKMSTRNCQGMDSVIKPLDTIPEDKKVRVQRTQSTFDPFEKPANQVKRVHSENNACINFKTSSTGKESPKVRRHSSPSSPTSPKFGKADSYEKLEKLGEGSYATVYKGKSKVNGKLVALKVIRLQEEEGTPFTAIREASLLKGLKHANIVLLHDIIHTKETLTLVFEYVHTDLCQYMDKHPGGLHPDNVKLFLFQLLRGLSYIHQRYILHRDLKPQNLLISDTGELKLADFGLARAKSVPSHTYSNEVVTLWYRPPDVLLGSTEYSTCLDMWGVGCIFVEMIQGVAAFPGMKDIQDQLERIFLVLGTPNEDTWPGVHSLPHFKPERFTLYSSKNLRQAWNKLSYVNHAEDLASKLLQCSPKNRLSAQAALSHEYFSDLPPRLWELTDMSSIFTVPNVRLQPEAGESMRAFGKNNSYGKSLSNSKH
# Chain of CDK14/Cyclin Y (Q8ND76 whole entry partner): as the sequence (Q8ND76 whole entry partner) above
# CDK4/Cyclin D1 = CDK4/Cyclin D1 (Homo sapiens, UniProt P11802); experiment: NanoBRET live-cell target engagement, NanoLuc-CDK4/Cyclin D1 in HEK-293; type: binding; conditions: CDK4/D1, read-out: Inhibition at 10µM (%)
# Chain of CDK4/Cyclin D1 (P11802 whole entry): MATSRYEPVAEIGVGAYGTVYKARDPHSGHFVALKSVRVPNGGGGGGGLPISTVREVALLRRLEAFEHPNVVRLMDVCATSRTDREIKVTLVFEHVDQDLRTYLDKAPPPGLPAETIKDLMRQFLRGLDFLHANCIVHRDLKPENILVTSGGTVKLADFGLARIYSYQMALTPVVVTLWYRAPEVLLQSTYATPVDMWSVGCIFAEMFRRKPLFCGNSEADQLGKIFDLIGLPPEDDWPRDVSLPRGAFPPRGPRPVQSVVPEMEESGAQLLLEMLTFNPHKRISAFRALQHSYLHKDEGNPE
# Chain of CDK4/Cyclin D1 (P24385 whole entry partner): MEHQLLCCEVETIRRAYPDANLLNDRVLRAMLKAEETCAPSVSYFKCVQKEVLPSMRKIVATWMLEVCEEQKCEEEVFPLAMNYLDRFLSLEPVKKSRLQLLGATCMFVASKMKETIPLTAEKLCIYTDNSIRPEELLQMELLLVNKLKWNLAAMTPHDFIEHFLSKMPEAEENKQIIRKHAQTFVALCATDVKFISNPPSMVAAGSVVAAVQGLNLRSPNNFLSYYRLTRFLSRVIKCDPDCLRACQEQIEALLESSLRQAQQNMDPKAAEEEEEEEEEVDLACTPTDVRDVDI
# CDK9/Cyclin K = CDK9/Cyclin K (Homo sapiens, UniProt P50750); experiment: NanoBRET live-cell target engagement, NanoLuc-CDK9/Cyclin K in HEK-293; type: binding; conditions: CDK9/K, read-out: Inhibition at 10µM (%)
# CDK12/Cyclin K = CDK12/Cyclin K (Homo sapiens, UniProt Q9NYV4); experiment: NanoBRET live-cell target engagement, CDK12-NanoLuc/Cyclin K in HEK-293; type: binding; conditions: CDK12/K, read-out: Inhibition at 10µM (%)
# CDK19/Cyclin C = CDK19/Cyclin C (Homo sapiens, UniProt Q9BWU1); experiment: NanoBRET live-cell target engagement, NanoLuc-CDK19/Cyclin C in HEK-293; conditions: read-out: Inhibition at 10µM (%), CDK19/C
# Chain of CDK19/Cyclin C (Q9BWU1 whole entry): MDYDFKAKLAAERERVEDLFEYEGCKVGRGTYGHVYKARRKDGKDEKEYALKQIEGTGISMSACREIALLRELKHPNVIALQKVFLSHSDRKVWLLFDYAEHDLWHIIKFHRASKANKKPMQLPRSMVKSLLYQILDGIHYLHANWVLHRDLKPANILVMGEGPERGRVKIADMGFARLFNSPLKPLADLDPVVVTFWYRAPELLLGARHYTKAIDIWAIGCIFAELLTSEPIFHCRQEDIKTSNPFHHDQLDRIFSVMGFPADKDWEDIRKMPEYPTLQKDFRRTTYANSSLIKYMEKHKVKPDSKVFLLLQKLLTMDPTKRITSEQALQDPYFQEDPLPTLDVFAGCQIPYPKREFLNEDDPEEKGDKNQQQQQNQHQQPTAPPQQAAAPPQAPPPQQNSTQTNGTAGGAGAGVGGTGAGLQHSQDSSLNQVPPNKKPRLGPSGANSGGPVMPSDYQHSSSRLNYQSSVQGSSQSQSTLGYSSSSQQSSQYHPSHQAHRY
# Chain of CDK19/Cyclin C (P24863 whole entry partner): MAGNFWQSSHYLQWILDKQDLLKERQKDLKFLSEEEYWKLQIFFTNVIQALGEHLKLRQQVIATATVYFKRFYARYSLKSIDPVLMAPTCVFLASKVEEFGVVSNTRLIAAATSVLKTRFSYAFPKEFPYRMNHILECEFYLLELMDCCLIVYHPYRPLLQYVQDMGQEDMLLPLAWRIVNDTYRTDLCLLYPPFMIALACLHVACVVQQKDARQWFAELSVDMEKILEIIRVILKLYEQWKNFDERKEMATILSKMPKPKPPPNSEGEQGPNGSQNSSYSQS
# CDK16/Cyclin Y = CDK16/Cyclin Y (Homo sapiens, UniProt Q00536); experiment: NanoBRET live-cell target engagement, CDK16-NanoLuc/Cyclin Y in HEK-293; type: binding; conditions: CDK16/Y, read-out: Inhibition at 10µM (%)
# CDK11B/Cyclin L2 = CDK11B/Cyclin L2 (Homo sapiens, UniProt P21127); experiment: NanoBRET live-cell target engagement, CDK11B-NanoLuc/Cyclin L2 in HEK-293; type: binding; conditions: CDK11b/L2, read-out: Inhibition at 10µM (%)
# Chain of CDK11B/Cyclin L2 (P21127 1-782 isoform P21127-2): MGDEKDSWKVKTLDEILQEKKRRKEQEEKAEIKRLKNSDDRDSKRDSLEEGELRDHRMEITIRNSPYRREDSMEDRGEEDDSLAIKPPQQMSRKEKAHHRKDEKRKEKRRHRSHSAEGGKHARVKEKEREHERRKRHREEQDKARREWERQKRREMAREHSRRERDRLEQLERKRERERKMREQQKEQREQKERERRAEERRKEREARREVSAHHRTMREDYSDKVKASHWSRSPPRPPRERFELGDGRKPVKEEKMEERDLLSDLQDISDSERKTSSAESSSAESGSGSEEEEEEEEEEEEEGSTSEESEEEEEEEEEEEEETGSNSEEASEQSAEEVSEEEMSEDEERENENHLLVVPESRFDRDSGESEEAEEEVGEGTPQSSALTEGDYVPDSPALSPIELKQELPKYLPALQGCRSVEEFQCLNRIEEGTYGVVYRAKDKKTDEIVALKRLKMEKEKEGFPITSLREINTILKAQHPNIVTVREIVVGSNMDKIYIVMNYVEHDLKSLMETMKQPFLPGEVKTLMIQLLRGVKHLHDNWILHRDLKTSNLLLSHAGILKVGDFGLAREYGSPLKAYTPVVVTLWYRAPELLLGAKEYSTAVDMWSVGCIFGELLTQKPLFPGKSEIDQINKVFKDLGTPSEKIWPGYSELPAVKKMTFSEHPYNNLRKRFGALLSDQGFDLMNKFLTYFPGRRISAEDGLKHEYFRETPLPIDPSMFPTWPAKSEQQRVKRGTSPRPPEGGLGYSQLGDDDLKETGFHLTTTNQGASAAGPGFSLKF
# CDK1/Cyclin E1 = CDK1/Cyclin E1 (Homo sapiens, UniProt P06493); experiment: NanoBRET live-cell target engagement, CDK1-NanoLuc/Cyclin E1 in HEK-293; type: binding; conditions: CDK1/E1, read-out: Inhibition at 10µM (%)
# Chain of CDK1/Cyclin E1 (P06493 whole entry): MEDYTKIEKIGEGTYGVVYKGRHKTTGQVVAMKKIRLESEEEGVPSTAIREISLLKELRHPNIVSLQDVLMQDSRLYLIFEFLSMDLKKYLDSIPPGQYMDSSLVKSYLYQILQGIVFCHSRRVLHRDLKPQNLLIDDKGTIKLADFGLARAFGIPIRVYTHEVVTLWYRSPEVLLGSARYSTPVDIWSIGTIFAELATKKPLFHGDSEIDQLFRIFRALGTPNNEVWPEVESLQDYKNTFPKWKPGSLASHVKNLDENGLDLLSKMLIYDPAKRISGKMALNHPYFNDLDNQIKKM
# Chain of CDK1/Cyclin E1 (P24864 whole entry partner): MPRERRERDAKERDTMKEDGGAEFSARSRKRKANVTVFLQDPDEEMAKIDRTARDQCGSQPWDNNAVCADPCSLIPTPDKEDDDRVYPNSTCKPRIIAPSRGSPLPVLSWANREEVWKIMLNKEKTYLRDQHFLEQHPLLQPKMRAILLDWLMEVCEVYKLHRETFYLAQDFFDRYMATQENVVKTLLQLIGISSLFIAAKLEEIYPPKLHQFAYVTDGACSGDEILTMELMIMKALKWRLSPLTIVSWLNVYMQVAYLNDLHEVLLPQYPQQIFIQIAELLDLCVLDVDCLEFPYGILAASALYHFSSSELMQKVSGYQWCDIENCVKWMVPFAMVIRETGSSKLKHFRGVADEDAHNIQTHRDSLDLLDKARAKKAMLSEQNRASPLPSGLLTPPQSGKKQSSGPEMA
# CDK15/Cyclin Y = CDK15/Cyclin Y (Homo sapiens, UniProt Q96Q40); experiment: NanoBRET live-cell target engagement, NanoLuc-CDK15/Cyclin Y in HEK-293; type: binding; conditions: CDK15/Y, read-out: Inhibition at 10µM (%)
# CDK7 = CDK7 (Homo sapiens, UniProt P50613); experiment: NanoBRET live-cell target engagement, NanoLuc-CDK7 in HEK-293; type: binding; conditions: CDK7, read-out: Inhibition at 10µM (%)
# CDK20/Cyclin H = CDK20/Cyclin H (Homo sapiens, UniProt Q8IZL9); experiment: NanoBRET live-cell target engagement, NanoLuc-CDK20/Cyclin H in HEK-293; type: binding; conditions: CDK20/H, read-out: Inhibition at 10µM (%)
# Chain of CDK10/Cyclin L2 (Q15131 whole entry): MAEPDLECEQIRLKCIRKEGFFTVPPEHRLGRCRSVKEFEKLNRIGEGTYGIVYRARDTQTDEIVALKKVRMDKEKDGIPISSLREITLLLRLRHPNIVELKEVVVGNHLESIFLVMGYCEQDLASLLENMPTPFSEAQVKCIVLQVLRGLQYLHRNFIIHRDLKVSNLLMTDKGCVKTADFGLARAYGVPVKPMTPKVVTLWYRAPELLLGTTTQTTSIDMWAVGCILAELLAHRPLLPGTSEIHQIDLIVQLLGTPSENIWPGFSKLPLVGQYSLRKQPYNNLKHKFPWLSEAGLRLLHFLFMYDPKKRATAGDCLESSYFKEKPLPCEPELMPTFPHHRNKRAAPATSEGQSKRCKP
compound,measurement,setting,value
CC(C)N1CCN(c2ccc(Nc3ncc4cc5n(c4n3)C3(CCCCC3)CNC5=O)nc2)CC1 [Lerociclib],inhibition at 10 µM,CDK10/Cyclin L2; average,7.8%
same,inhibition at 10 µM,CDK10/Cyclin L2; experiment 1,9.5%
same,inhibition at 10 µM,CDK10/Cyclin L2; experiment 2,6.2%
same,inhibition at 10 µM,CDK13/Cyclin K; average,-0.247%
same,inhibition at 10 µM,CDK13/Cyclin K; experiment 1,4.2%
same,inhibition at 10 µM,CDK13/Cyclin K; experiment 2,-4.7%
same,inhibition at 10 µM,CDK5/CDK5R1; average,12.2%
same,inhibition at 10 µM,CDK5/CDK5R1; experiment 1,5.5%
same,inhibition at 10 µM,CDK5/CDK5R1; experiment 2,18.9%
same,inhibition at 10 µM,CDK8/Cyclin C; average,4.9%
same,inhibition at 10 µM,CDK8/Cyclin C; experiment 1,6.7%
same,inhibition at 10 µM,CDK8/Cyclin C; experiment 2,3%
same,inhibition at 10 µM,CDK6/Cyclin D1; average,98.9%
same,inhibition at 10 µM,CDK6/Cyclin D1; experiment 1,97%
same,inhibition at 10 µM,CDK6/Cyclin D1; experiment 2,101%
same,inhibition at 10 µM,CDK3/Cyclin E1; average,3.3%
same,inhibition at 10 µM,CDK3/Cyclin E1; experiment 1,5%
same,inhibition at 10 µM,CDK3/Cyclin E1; experiment 2,1.6%
same,inhibition at 10 µM,CDK2/Cyclin E1; average,-5.8%
same,inhibition at 10 µM,CDK2/Cyclin E1; experiment 1,-11%
same,inhibition at 10 µM,CDK2/Cyclin E1; experiment 2,-0.6%
same,inhibition at 10 µM,CDK18/Cyclin Y; average,19.5%
same,inhibition at 10 µM,CDK18/Cyclin Y; experiment 1,22.1%
same,inhibition at 10 µM,CDK18/Cyclin Y; experiment 2,16.8%
same,inhibition at 10 µM,CDK17/Cyclin Y; average,58.5%
same,inhibition at 10 µM,CDK17/Cyclin Y; experiment 1,75.6%
same,inhibition at 10 µM,CDK17/Cyclin Y; experiment 2,41.4%
same,inhibition at 10 µM,CDK14/Cyclin Y; average,29.2%
same,inhibition at 10 µM,CDK14/Cyclin Y; experiment 1,25.1%
same,inhibition at 10 µM,CDK14/Cyclin Y; experiment 2,33.2%
same,inhibition at 10 µM,CDK4/Cyclin D1; average,93.4%
same,inhibition at 10 µM,CDK4/Cyclin D1; experiment 1,96.8%
same,inhibition at 10 µM,CDK4/Cyclin D1; experiment 2,90.1%
same,inhibition at 10 µM,CDK9/Cyclin K; average,29.3%
same,inhibition at 10 µM,CDK9/Cyclin K; experiment 1,31%
same,inhibition at 10 µM,CDK9/Cyclin K; experiment 2,27.6%
same,inhibition at 10 µM,CDK12/Cyclin K; average,8.7%
same,inhibition at 10 µM,CDK12/Cyclin K; experiment 1,-0.9%
same,inhibition at 10 µM,CDK12/Cyclin K; experiment 2,18.4%
same,inhibition at 10 µM,CDK19/Cyclin C; average,13%
same,inhibition at 10 µM,CDK19/Cyclin C; experiment 1,7.9%
same,inhibition at 10 µM,CDK19/Cyclin C; experiment 2,18.2%
same,inhibition at 10 µM,CDK16/Cyclin Y; experiment 1,77.1%
same,inhibition at 10 µM,CDK16/Cyclin Y; experiment 2,32%
same,inhibition at 10 µM,CDK11B/Cyclin L2; average,16.1%
same,inhibition at 10 µM,CDK11B/Cyclin L2; experiment 1,0.226%
same,inhibition at 10 µM,CDK11B/Cyclin L2; experiment 2,32%
same,inhibition at 10 µM,CDK1/Cyclin E1; average,7.7%
same,inhibition at 10 µM,CDK1/Cyclin E1; experiment 1,12.1%
same,inhibition at 10 µM,CDK1/Cyclin E1; experiment 2,3.2%
same,inhibition at 10 µM,CDK15/Cyclin Y; average,14.9%
same,inhibition at 10 µM,CDK15/Cyclin Y; experiment 1,5%
same,inhibition at 10 µM,CDK15/Cyclin Y; experiment 2,24.7%
same,inhibition at 10 µM,CDK7; average,35.1%
same,inhibition at 10 µM,CDK7; experiment 1,12.3%
same,inhibition at 10 µM,CDK7; experiment 2,58%
same,inhibition at 10 µM,CDK20/Cyclin H; experiment 1,10.2%
same,inhibition at 10 µM,CDK20/Cyclin H; experiment 2,7.2%
